Experimental data taken from the Kinase Knowledgebase extract (Sharma et al. 2016).

Target: ROCK2 (human) (UniProt O75116)
Test: Enzyme Assay

ROCK2 (human), sequence (O75116 whole entry, looked up): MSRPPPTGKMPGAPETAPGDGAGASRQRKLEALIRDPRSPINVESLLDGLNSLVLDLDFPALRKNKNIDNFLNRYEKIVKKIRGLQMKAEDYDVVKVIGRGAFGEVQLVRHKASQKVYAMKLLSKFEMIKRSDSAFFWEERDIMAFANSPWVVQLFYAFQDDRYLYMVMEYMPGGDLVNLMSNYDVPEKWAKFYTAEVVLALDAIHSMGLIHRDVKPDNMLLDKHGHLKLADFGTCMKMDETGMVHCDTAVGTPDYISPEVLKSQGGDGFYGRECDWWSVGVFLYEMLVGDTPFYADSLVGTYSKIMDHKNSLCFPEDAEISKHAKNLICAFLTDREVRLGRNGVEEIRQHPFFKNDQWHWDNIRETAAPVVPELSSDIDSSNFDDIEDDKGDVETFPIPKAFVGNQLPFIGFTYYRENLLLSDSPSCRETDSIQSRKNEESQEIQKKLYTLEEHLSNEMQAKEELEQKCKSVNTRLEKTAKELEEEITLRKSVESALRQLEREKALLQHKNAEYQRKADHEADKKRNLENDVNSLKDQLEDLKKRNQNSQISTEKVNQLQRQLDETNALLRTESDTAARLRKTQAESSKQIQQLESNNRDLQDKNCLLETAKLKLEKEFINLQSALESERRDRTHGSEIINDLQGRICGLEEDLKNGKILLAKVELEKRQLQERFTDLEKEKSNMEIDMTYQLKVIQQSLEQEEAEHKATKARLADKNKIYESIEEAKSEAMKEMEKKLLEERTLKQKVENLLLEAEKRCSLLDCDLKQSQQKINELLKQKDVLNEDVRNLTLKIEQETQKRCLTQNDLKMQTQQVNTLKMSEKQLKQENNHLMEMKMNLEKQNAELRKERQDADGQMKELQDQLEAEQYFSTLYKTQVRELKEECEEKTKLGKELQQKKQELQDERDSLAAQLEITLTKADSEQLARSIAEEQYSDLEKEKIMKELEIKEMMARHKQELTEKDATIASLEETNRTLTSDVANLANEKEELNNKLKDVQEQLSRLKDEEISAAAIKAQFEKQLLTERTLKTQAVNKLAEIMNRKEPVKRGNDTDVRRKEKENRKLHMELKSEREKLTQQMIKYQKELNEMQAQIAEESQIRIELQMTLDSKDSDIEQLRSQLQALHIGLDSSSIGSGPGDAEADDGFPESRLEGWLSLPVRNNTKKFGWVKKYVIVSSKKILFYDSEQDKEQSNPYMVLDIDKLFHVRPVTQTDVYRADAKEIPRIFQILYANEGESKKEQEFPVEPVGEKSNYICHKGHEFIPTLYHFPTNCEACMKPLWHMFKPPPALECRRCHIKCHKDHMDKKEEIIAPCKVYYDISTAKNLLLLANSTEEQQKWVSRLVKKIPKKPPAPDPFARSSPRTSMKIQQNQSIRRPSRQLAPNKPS

NCc1ccc(C(=O)Nc2ccncc2F)cc1-c1cccc(C(=O)Nc2ccc(SC3CCOC3=O)cc2)c1 (stereo unspecified)
IC50: < 100 nM

NCc1ccc(C(=O)Nc2ccncc2)cc1-c1cccc(NC(=O)c2ccc(SC3CCOC3=O)cc2)c1 (stereo unspecified)
IC50: < 100 nM

CC1(C)COC(=O)C1Sc1ccc(NC(=O)c2cccc(-c3cc(C(=O)Nc4ccncc4F)ccc3CN)c2)cc1 (stereo unspecified)
IC50: < 100 nM

NCc1ccc(C(=O)Nc2ccncc2F)cc1-c1cccc(C(=O)Nc2ccc(SC3CCOC3=O)cc2F)c1 (stereo unspecified)
IC50: < 100 nM

NCc1ccc(C(=O)Nc2ccncc2F)cc1-c1cccc(NC(=O)c2ccc(SC3CCOC3=O)cc2)c1 (stereo unspecified)
IC50: < 100 nM

CC1CC(Sc2ccc(NC(=O)c3cccc(-c4cc(C(=O)Nc5ccncc5F)ccc4CN)c3)cc2)C(=O)O1 (stereo unspecified)
IC50: < 100 nM

NCc1ccc(C(=O)Nc2ccncc2F)cc1-c1cccc(C(=O)Nc2ccc(NC3CCOC3=O)cc2)c1 (stereo unspecified)
IC50: < 100 nM

NCc1ccc(C(=O)Nc2ccncc2F)cc1-c1cccc(C(=O)Nc2ccc(CNC3CCOC3=O)cc2)c1 (stereo unspecified)
IC50: < 100 nM

NCc1ccc(C(=O)Nc2ccncc2F)cc1-c1cccc(C(=O)Nc2ncc(NC3CCOC3=O)s2)c1 (stereo unspecified)
IC50: < 100 nM

NCc1ccc(C(=O)Nc2ccncc2F)cc1-c1cccc(C(=O)Nc2ccc(OC3CCOC3=O)cc2)c1 (stereo unspecified)
IC50: < 100 nM

NCc1ccc(C(=O)Nc2ccncc2F)cc1-c1cccc(C(=O)Nc2ccc(SC3COC(=O)C3)cc2)c1 (stereo unspecified)
IC50: < 100 nM

NCc1ccc(C(=O)Nc2ccncc2F)cc1-c1cccc(C(=O)Nc2cccc(SC3CCOC3=O)c2)c1 (stereo unspecified)
IC50: < 100 nM

CN(c1ccc(NC(=O)c2cccc(-c3cc(C(=O)Nc4ccncc4F)ccc3CN)c2)cc1)C1CCOC1=O (stereo unspecified)
IC50: < 100 nM

Cc1cc(NC2CCOC2=O)ccc1NC(=O)c1cccc(-c2cc(C(=O)Nc3ccncc3F)ccc2CN)c1 (stereo unspecified)
IC50: < 100 nM

NCc1ccc(C(=O)Nc2ccncc2F)cc1-c1cccc(C(=O)Nc2ccc(SCC3CCOC3=O)cc2)c1 (stereo unspecified)
IC50: < 100 nM

NCc1ccc(C(=O)Nc2ccncc2F)cc1-c1cccc(NC(=O)c2ccc(NC3CCOC3=O)cc2)c1 (stereo unspecified)
IC50: < 100 nM
